Measurements: patent US3988364A, “Novel N,N-di-substituted amidines and several acid-addition salts thereof” (Toyo Jozo Kabushiki Kaisha, priority 1972, dated 1976)
Counter-ions that a name gives are not always drawn.

Tested on: not listed separately
Assay: in vivo
Type: in vivo
Conditions: mouse, in vivo, sc, male ddy mice, subcutaneous injection, Litchfield-Wilcoxon
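For LD50 in this document: animals allocated into more than five groups, with five mice per group.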
Description: test animals: more than five groups, each group
consisting of five male mice of ddy-

Row | SMILES | LD50 at 72 h [mg/kg]
1 | Cc1ccccc1NC(=NC1CCCCC1)c1ccccc1 [Compound 1, hydrochloric acid salt of N-cyclohexyl, N'-o-tolyl-benzamidine] | 242
2 | Cc1ccc(NC(=NC2CCCCC2)c2ccccc2)cc1 [Compound 2, hydrochloric acid salt of N-cyclohexyl, N'-p-tolyl-benzamidine] | 186
3 | CCc1ccc(N=C(NC2CCCCC2)c2ccccc2)cc1.Cl [Compound 3, N-cyclohexyl, N'-p-ethylphenyl-benzamidine hydrochloride] | 218
4 | Cc1cccc(NC(=NC2CCCCC2)c2ccccc2)c1C [Compound 4, hydrochloric acid salt of N-cyclohexyl, N'-2,3-xylyl-benzamidine] | 117
5 | COc1ccccc1N=C(NC1CCCCC1)c1ccccc1.Cl [Compound 5, N-cyclohexyl, N'-o-methoxyphenyl-benzamidine hydrochloride] | 268
6 | COc1cccc(N=C(NC2CCCCC2)c2ccccc2)c1.Cl [Compound 6, N-cyclohexyl, N'-m-methoxyphenyl-benzamidine hydrochloride] | 78
7 | c1ccc(C(=NC2CCCCC2)Nc2cccc3ccccc23)cc1 [Compound 7, N-cyclohexyl, N'-α-naphtyl-benzamidine hydrochloride] | > 800
8 | Cc1cccc(C(=NC2CCCCC2)Nc2ccccc2)c1 [Compound 8, hydrochloric acid salt of N-cyclohexyl, N'-phenyl-m-toluamidine] | 276
9 | Cc1cccc(NC(=NC2CCCCC2)c2cccc(C)c2)c1 [Compound 9, hydrochloric acid salt of N-cyclohexyl, N'-m-tolyl-m-toluamidine] | 445
10 | Cc1ccc(C(=NC2CCCCC2)Nc2ccccc2)cc1 [Compound 10, hydrochloric acid salt of N-cyclohexyl, N'-phenyl-p-toluamidine] | 186
11 | COc1ccc2c(c1)[C@]13CCCC[C@@H]1[C@H](C2)N(C)CC3 [Compound 15, dextrometrofan hydrobromide, reference compound] | 153
12 | COc1ccc2c(c1OC)C(=O)O[C@@H]2[C@H]1c2c(cc3c(c2OC)OCO3)CCN1C [Compound 16, noscapine hydrochloride, reference compound] | 240
13 | Cc1ccccc1C(=NC1CCCCC1)Nc1ccccc1 [Compound 18, N-cyclohexyl, N'-phenol-o-toluamidine hydrochloride] | 740
14 | Cc1ccccc1N=C(NC1CCCCC1)c1ccccc1C.Cl [Compound 19, N-cyclohexyl, N'-o-tolyl-o-toluamidine hydrochloride] | 650
15 | Cc1cccc(N=C(NC2CCCCC2)c2ccccc2C)c1.Cl [Compound 20, N-cyclohexyl, N'-m-tolyl-o-toluamidine hydrochloride] | > 100
16 | Cc1ccc(N=C(NC2CCCCC2)c2ccccc2C)cc1.Cl [Compound 21, N-cyclohexyl, N'-p-tolyl-o-toluamidine hydrochloride] | 160
17 | Cc1ccccc1C(=NC1CCCCC1)Nc1cccc(C)c1C [Compound 22, N-cyclohexyl, N'-2,3,-xylyl-o-toluamidine hydrochloride] | > 1000
18 | COc1ccccc1N=C(NC1CCCCC1)c1cccc(C)c1.Cl [Compound 23, N-cyclohexyl, N'-o-methoxyphenyl-m-toluamidine hydrochloride] | 100
19 | COc1cccc(N=C(NC2CCCCC2)c2ccccc2C)c1.O=C(O)C(=O)O [Compound 24, N-cyclohexyl, N'-m-methoxyphenyl-o-toluamidine oxalate] | 891
20 | Cc1ccc(N=C(NC2CCCCC2)c2cccc(C)c2)cc1.Cl [Compound 25, N-cyclohexyl, N'-p-tolyl-m-toluamidine hydrochloride] | 900
21 | Cc1cccc(C(=Nc2ccccc2C)NC2CCCCC2)c1.Cl [Compound 26, N-cyclohexyl, N'-o-tolyl-m-toluamidine hydrochloride] | 740
22 | CCc1ccccc1N=C(NC1CCCCC1)c1cccc(C)c1.Cl [Compound 27, N-cyclohexyl, N'-o-ethylphenyl-m-toluamidine hydrochloride] | > 1000

Tested on: dogs
Assay: Antitussive activity (50%-antitussive effective dose AtD50; efficiency ratio relative to codeine phosphate)
Type: in vivo
Conditions: Canis lupus familiaris, iv, read-out: AtD50 (50%-antitussive effective dose)
Method: route of administration:
From the efficiency rate obtained upon each administration step, 50%-antitussive effective dose (AtD50) was calculated according to the Litchfield-Wilcoxon method. Further, efficiency ratio relative to codeine phosphate was also determined.

Row | SMILES | ED50 [mg/kg]
23 | Cc1ccccc1C(=NC1CCCCC1)Nc1ccccc1 [Compound 18, N-cyclohexyl, N'-phenol-o-toluamidine hydrochloride] | 5.15
24 | Cc1cccc(N=C(NC2CCCCC2)c2ccccc2C)c1.Cl [Compound 20, N-cyclohexyl, N'-m-tolyl-o-toluamidine hydrochloride] | 4.29
25 | COc1ccccc1N=C(NC1CCCCC1)c1cccc(C)c1.Cl [Compound 23, N-cyclohexyl, N'-o-methoxyphenyl-m-toluamidine hydrochloride] | 4.29

Same assay, conditions: Canis lupus familiaris; intravenous injection; Litchfield-Wilcoxon method; read-out: AtD50 (50%-antitussive effective dose)

Row | SMILES | ED50 [mg/kg]
26 | Cc1ccccc1N=C(NC1CCCCC1)c1ccccc1C.Cl [Compound 19, N-cyclohexyl, N'-o-tolyl-o-toluamidine hydrochloride] | 5.15
27 | Cc1ccc(N=C(NC2CCCCC2)c2ccccc2C)cc1.Cl [Compound 21, N-cyclohexyl, N'-p-tolyl-o-toluamidine hydrochloride] | 3.58
28 | Cc1ccccc1C(=NC1CCCCC1)Nc1cccc(C)c1C [Compound 22, N-cyclohexyl, N'-2,3,-xylyl-o-toluamidine hydrochloride] | 3.58
29 | COc1cccc(N=C(NC2CCCCC2)c2ccccc2C)c1.O=C(O)C(=O)O [Compound 24, N-cyclohexyl, N'-m-methoxyphenyl-o-toluamidine oxalate] | 5.15
30 | Cc1ccc(N=C(NC2CCCCC2)c2cccc(C)c2)cc1.Cl [Compound 25, N-cyclohexyl, N'-p-tolyl-m-toluamidine hydrochloride] | 4.29
31 | Cc1cccc(C(=Nc2ccccc2C)NC2CCCCC2)c1.Cl [Compound 26, N-cyclohexyl, N'-o-tolyl-m-toluamidine hydrochloride] | 2.98
32 | CCc1ccccc1N=C(NC1CCCCC1)c1cccc(C)c1.Cl [Compound 27, N-cyclohexyl, N'-o-ethylphenyl-m-toluamidine hydrochloride] | 5.15

Same assay, conditions: intravenous injection; efficiency ratio relative to codeine phosphate

Row | SMILES | Antitussive Ratio
33 | Cc1ccccc1NC(=NC1CCCCC1)c1ccccc1 [Compound 1, hydrochloric acid salt of N-cyclohexyl, N'-o-tolyl-benzamidine] | 1.73
34 | Cc1ccc(NC(=NC2CCCCC2)c2ccccc2)cc1 [Compound 2, hydrochloric acid salt of N-cyclohexyl, N'-p-tolyl-benzamidine] | 0.58
35 | CCc1ccc(N=C(NC2CCCCC2)c2ccccc2)cc1.Cl [Compound 3, N-cyclohexyl, N'-p-ethylphenyl-benzamidine hydrochloride] | 0.95
36 | Cc1cccc(NC(=NC2CCCCC2)c2ccccc2)c1C [Compound 4, hydrochloric acid salt of N-cyclohexyl, N'-2,3-xylyl-benzamidine] | 1.21
37 | COc1ccccc1N=C(NC1CCCCC1)c1ccccc1.Cl [Compound 5, N-cyclohexyl, N'-o-methoxyphenyl-benzamidine hydrochloride] | 0.44
38 | COc1cccc(N=C(NC2CCCCC2)c2ccccc2)c1.Cl [Compound 6, N-cyclohexyl, N'-m-methoxyphenyl-benzamidine hydrochloride] | 1.20
39 | c1ccc(C(=NC2CCCCC2)Nc2cccc3ccccc23)cc1 [Compound 7, N-cyclohexyl, N'-α-naphtyl-benzamidine hydrochloride] | 0.79
40 | Cc1cccc(C(=NC2CCCCC2)Nc2ccccc2)c1 [Compound 8, hydrochloric acid salt of N-cyclohexyl, N'-phenyl-m-toluamidine] | 1.20
41 | Cc1cccc(NC(=NC2CCCCC2)c2cccc(C)c2)c1 [Compound 9, hydrochloric acid salt of N-cyclohexyl, N'-m-tolyl-m-toluamidine] | 1.20
42 | Cc1ccc(C(=NC2CCCCC2)Nc2ccccc2)cc1 [Compound 10, hydrochloric acid salt of N-cyclohexyl, N'-phenyl-p-toluamidine] | 0.83
43 | COc1ccc2c(c1)[C@]13CCCC[C@@H]1[C@H](C2)N(C)CC3 [Compound 15, dextrometrofan hydrobromide, reference compound] | 0.15
44 | COc1ccc2c(c1OC)C(=O)O[C@@H]2[C@H]1c2c(cc3c(c2OC)OCO3)CCN1C [Compound 16, noscapine hydrochloride, reference compound] | 0.24
